Test results from patent US12622922B2, “Compositions and methods for metal containing formulations capable of modulating immune response” (The Regents of the University of Michigan, priority 2018, dated 2026).

Legend:
[1] = system: THP 1 dual-KI-hSTING^WT(R232) reporter cells; assay: Cellular viability of chelator-treated THP 1 dual-KI-hSTING WT(R232) reporter cells; assay type: cell-based, human
Description: (§1) FIG. 18: Chelating metal ions to inhibit cGAS-STING-Type I IFN pathway. a) Molecular structure of representative chelators that could inhibit cGAS-STING-Type I IFN pathway. b-c) Dose-inhibition curves of the IFN-I response (b) and NF-kB inflammation response (c) by the indicated compounds in DNA/lipofectamine 2000 (ThermoFisher, 11668027) treated THP 1 dual-KI-hSTING^WT(R232) reporter cells (Invivogen, thpd-r232). d) Cellular viability of b-c. e) Dose-inhibition curves of the IFN-I response by the indicated compounds in DNA/lipofectamine 2000 (ThermoFisher, 11668027) treated THP 1-ISG hSTING^HAQ reporter cells (Invivogen, thp-isg). […]
(§2) Given the interesting function of metal ions on modulating innate immune response in our finding, we further evaluated whether chelating metal ions could inhibit the according innate immune pathways, which may be used to treat autoimmune diseases, such as Systemic lupus erythematosus, Aicardi-Goutières syndrome, Acute pancreatitis Age-dependent macular degeneration, Alcoholic liver disease, Liver fibrosis, Metastasis, Myocardial infarction, Nonalcoholic steatohepatitis (NASH), Parkinson's disease, Polyarthritis/fetal and neonatal anemia, Sepsis, inflammatory bowel disease, multiple sclerosis, etc. […] By a ISRE induced luminescence, we could read the degree of inhibition. […]

[2] = system: cGAS-STING-Type I IFN pathway; assay: Inhibition of DNA/lipofectamine-induced IFN-I response in THP 1 dual-KI-hSTING WT(R232) reporter cells; assay type: cell-based, human; conditions: DNA/lipofectamine complex challenging, ISRE induced luminescence
Description: as §1, §2

[3] = system: CT26 colon cancer cells; assay: CT26 colon tumor model, metal ion plus STING agonist CDA, intratumoral; assay type: in vivo, Balb/c mice; conditions: CT26 tumor-bearing mice
Experimental: FIG. 6: Enhanced STING activation and cancer therapy efficacy by Co^2+ and Mn^2+ in vivo. a) individual tumor growth curve after three dose of intratumor injection of the indicated formulation at day 9, 12, 15 after tumor inoculation. b) Serum IFN-beta concentration 8 h after the 1st dose of the indicated formulation. c-d) individual tumor growth (c) and survival (d) of the tumor bearing mice after treated with the indicated formulations.
FIG. 7: Enhanced STING activation by Co^2+ and Mn^2+ led to improved antigen specific immune response after in vivo. a) the percentage of AH1-specific CD8+ T cells among PBMC on day 16. b) IFN-γ secreting cells counts per 5E4 PBMCs after stimulation with AH1 peptides at day 22. c-e) timeline (c). tumor growth curve (d) and AH1-specific CD8+ T cells percentage in spleen CD8+ T cells (e) in tumor re-challenging study starting from day 81. […]
We examined whether the enhanced type-I IFN response in vitro could benefit cancer treatment in vivo. We evaluated the combination of metal ions and STING agonist in a murine tumor model.
To study the mechanisms of action for the improved cancer therapy efficacy, we evaluated the treated animals for antigen-specific T cell responses and performed tumor re-challenging study after 81 days of the initial treatment.

[4] = system: CT26 colon cancer cells
Experimental: When tumor size reach ˜60 mm^3, 2 doses of 25 μg/dose cdAMP(ps)2 were administrated intra-tumorally on days 10 and 15. To evaluate antigen-specific immune responses, PBMCs were collected for tetramer staining on day 17 and ELISPOT analysis with AH1 antigen peptides on day 22.
Female Balb/c mice of age 6-8 weeks (Jackson Laboratories) were inoculated with 1×10^5 CT26 colon cancer cells. When tumor size achieved ˜100 mm^3, 2 doses of 25 μg cdAMP(ps)2 in different formulations were administrated via intra-tumoral route on day 10 and day 15. Tumor size and survival were monitored every 2 or 3 days. Tumor size was calculated based on equation: volume=length×width^2×0.5. Animals were euthanized when the tumor reached 1.5 cm in diameter or when animals became moribund with severe weight loss or ulceration. At day 17, the percentages of tumor antigen-specific CD8α+ T cells among PBMC were analyzed using the tetramer staining assay as described previously with peptide-MHC tetramer (H-2Kb-restricted AH1) (the NIH Tetramer Core Facility, Atlanta, GA). On day 22, ELISPOT assay was performed with PBMC from the treated mice as described previously.
We also evaluated a subset of the formulations mentioned above in tumor-bearing mice. When tumor size reached ˜60 mm^3, 2 doses of indicated formulation with 25 μg/dose adAMP(ps)2 were administrated intratumorally on days 10 and 15.

| Compound | tolerability in in-vitro assay (cellular viability) [1] | IC50 of DNA-induced Type I IFN response [2] | survival rate [3] | AH1 antigen-specific T cell response (ELISPOT) ([4]; PBMC, day 22, seven days after the 2nd dose) | complete tumor regression ([4]; number of mice out of 5) |
| --- | --- | --- | --- | --- | --- |
| O=C1O[C@H]2[C@@H]3OC(=O)c4cc(O)c(O)c(O)c4-c4c(O)c(O)c5oc(=O)c6c(c(O)c(O)c7oc(=O)c4c5c76)-c4c(cc(O)c(O)c4O)C(=O)OC[C@H]3OC(O)[C@@H]2OC(=O)c2cc(O)c(O)c(O)c2-c2c1cc(O)c(O)c2O (mixture of isomers) [Punicalagin] | well-tolerated | as low as nanomolar level |  |  |  |
| Nc1ncnc2c1ncn2[C@@H]1O[C@@H]2COP(=O)(O)O[C@H]3[C@@H](O)[C@H](n4cnc5c(N)ncnc54)O[C@@H]3COP(=O)(O)O[C@H]2[C@H]1O [free CDA] |  |  | 20% |  |  |
| O=C(OC[C@H]1O[C@@H](OC(=O)c2cc(O)c(O)c(OC(=O)c3cc(O)c(O)c(O)c3)c2)[C@H](OC(=O)c2cc(O)c(O)c(OC(=O)c3cc(O)c(O)c(O)c3)c2)[C@@H](OC(=O)c2cc(O)c(O)c(OC(=O)c3cc(O)c(O)c(O)c3)c2)[C@@H]1OC(=O)c1cc(O)c(O)c(OC(=O)c2cc(O)c(O)c(O)c2)c1)c1cc(O)c(O)c(OC(=O)c2cc(O)c(O)c(O)c2)c1 [tannin acid] | well-tolerated | as low as nanomolar level |  |  |  |
| cdAMP(ps)2 [free CDN] |  |  |  | significant | 2 out of 5 |
